# According to US7176234B2, “Derivatives of gambogic acid and analogs as activators of caspases and inducers of apoptosis” (priority 2002, dated 2007):
# “Also recorded” adds a separate entry of the source. Read-outs that look alike come from different tables or passages of the source.
# Experiments:
# T-47D = experiment: Caspase cascade activation / apoptosis induction assay (N-(Ac-DEVD)-N'-ethoxycarbonyl-R110 substrate) in T-47D cells; format: cell-based, Human; details: T47D cells
# Procedure: Human breast cancer cell lines T-47D and ZR-75-1 were grown according to media component mixtures designated by American Type Culture Collection+10% FCS (Invitrogen Corporation), in a 5% CO2-95% humidity incubator at 37° C. T-47D and ZR-75-1 cells were maintained at a cell density between 30 and 80% confluency and for HL-60 at a cell density of 0.1 to 0.6×10^6 cells/ml. Cells were harvested at 600×g and resuspended at 0.65×10^6 cells/mL into appropriate media+10% FCS. An aliquot of 45 μl of cells was added to a well of a 96-well microtiter plate containing 5 μl of a 10% DMSO in RPMI-1640 media solution containing 1.6 to 100 μM of gambogic acid or other test compound (0.16 to 10 μM final). An aliquot of 45 μl of cells was added to a well of a 96-well microtiter plate containing […] of a 10% DMSO in RPMI-1640 media solution without test compound as the control sample. The samples were mixed by agitation and then incubated at 37° C. for 24 h in a 5% CO2-95% humidity incubator. After incubation, the samples were removed from the incubator and 50 μl of a solution containing 20 μM of N-(Ac-DEVD)-N′-ethoxycarbonyl-R110 fluorogenic substrate SEQ ID NO:1 (Cytovia, Inc.; U.S. Pat. No. 6,335,429), 20% sucrose (Sigma), 20 mM DTT (Sigma), 200 mM NaCl (Sigma), 40 mM Na PIPES buffer pH 7.2 (Sigma), and 500 μg/mL lysolecithin (Calbiochem) was added. The samples were mixed by agitation and incubated at room temperature. Using a fluorescent plate reader (Model 1420 Wallac Instruments), an initial reading (T=0) was made approximately 1–2 min after addition of the substrate solution, employing excitation at 485 nm and emission at 530 nm, to determine the background fluorescence of the control sample. After approximately 3 h of incubation, the samples were read for fluorescence as above (T=3 h).
# The Relative Fluorescence Unit values (RFU) were used to calculate the sample readings as follows: RFU(T=3h)−Control RFU(T=0)=Net RFU(T=3h)
# The activity of caspase cascade activation was determined by the ratio of the net RFU value for derivatives of gambogic acid to that of control samples. The EC50 (nM) was determined by a sigmoidal dose-response calculation (Prism 2.0, GraphPad Software Inc.).
# Methyl 9,10-dihydro-10-morpholinyl-gambogate and gambogic acid were assayed as described in Example 28 in T47D cells. The samples of cells and testing compound were incubated for 5 h and 24 h, respectively. Table II summarizes the caspase activity (Ratio) and potency (EC50) of methyl 9,10-dihydro-10-morpholinyl-gambogate (compound B) in the 5 h and 24 h assays, in comparison with that of gambogic acid (compound A).
# [1] = Conversion of methyl 9,10-dihydro-10-morpholinyl-gambogate to methyl gambogate in biological media (HPLC); format: physicochemical
# Procedure: A solution of methyl 9,10-dihydro-10-morpholinyl-gambogate in 87.5% RPMI 1640 biological Media (Invitrogen Corporation, Carlsbad, Calif.), 5.6% EtOH, 1.3% DMSO, and 5.6% Cremophor EL at a concentration of 5 mg/ml was stored at 37° C. The amount of methyl 9,10-dihydro-10-morpholinyl-gambogate (compound B) and methyl gambogate (compound C) was measured by integration of the peak area. The HPLC was run in the Beckman System Gold with 32 Karate software under the following conditions: […]
# ICR (CD-1) mice = experiment: Maximum tolerated dose (MTD) in mice, I.V.; format: in vivo
# Procedure: For acute toxicity studies, 3 ICR (CD-1) mice were used per each dose group. Animals were given a single bolus injection in the tail vein with approximately 100 μl volume of compound formulation or vehicle formulation. Mice body weights were measured daily along with daily observation for clinical abnormalities. The maximum tolerated dose (MTD) was defined as the dose that results in less than 10% decrease in body weight with no clinical abnormalities.
# For multiple dose studies, the animals were dosed once a day for 5 days.
# Table IV summarizes the MTD of gambogic acid and methyl 9,10-dihydro-10-morpholinyl-gambogate in mice by I.V. administration.
# [2] = Pharmacokinetic studies in mice (plasma, LC/MS/MS); format: in vivo, ICR mice
# Procedure: ICR mice were administered a single dose of drug into the tail vein. At each time point, 3 animals were sacrificed and the blood was withdrawn by cardiac puncture. The blood cells were spun down and the plasma was collected and frozen immediately in liquid nitrogen. For sample processing, the plasma was thawed and extraction solvent was added along with an internal standard to assess recoveries. The samples were vortexed followed by centrifugation, and the extraction solution was collected and subjected to LC/MS/MS analysis to identify and quantitate the compound plasma concentration. The levels of compound from the three animals at each time point were averaged and the pharmacokinetic parameters calculated using WinNonLin program. Table V summarized the major PK parameters.
# MX-1 (Breast cancer) = experiment: Efficacy in human tumor xenograft mouse model MX-1; format: in vivo, human tumor in CD1 nu/nu mice; details: MX-1 xenograft, 50 mg/kg, every day, I.V.
# Procedure: (§1) CD1 nu/nu mice were used. Viable tumor bits of transplantable human xenografts approximately 50 mg of trocar or cultured human tumor cells (nx106 cells?) were implanted subcutaneously into the flank region of mice and tumors were allowed to grow to the desired average size of 100 mg. The mice were measured for tumor size and those within the accepted tumor range of 75–125 mg, were randomized into control and treatment groups with 8–9 mice per group. Treatment was initiated on these groups which have an average starting tumor size of 100 mg. The control group was injected with the vehicle used to dissolve the drug. Injections were I.V. via the tail vein. Tumor measurements were taken every other day along with weights of animals and all animals were observed daily for survival. Tumor size was calculated by the equation of: Tumor volume=(length×width^2)/2.
# [3] = system: SW620 (colorectal cancer); experiment: Efficacy in human tumor xenograft mouse model SW620; format: in vivo, human tumor in CD1 nu/nu mice; details: 75 mg/kg, every day, I.V.
# Procedure: as §1
# [4] = system: human tumor xenograft models; experiment: Efficacy studies in human tumor xenograft models (text summary, model not named); format: in vivo, human tumor in nu/nu mice; details: for Efficacy (in words): summary of Table VI, gambogic acid at its maximal tolerable dose
# Procedure: as §1
# ZR75-1 (Breast cancer) = experiment: Efficacy in human tumor xenograft mouse model ZR75-1; format: in vivo, human tumor in CD1 nu/nu mice; details: ZR75-1 xenograft, 5 mg/kg, every other day, I.V.
# Procedure: as §1
# HeLa cells = details: cited from earlier work
# HEL cells = details: cited from earlier work
# KB cell line = details: cited from earlier work
# KB-V1 cell line = details: cited from earlier work
# [5] = 5 h assay, read-out: Caspase potency EC50, 5 h
# [6] = 24 h assay, read-out: Caspase potency EC50, 24 h
# [7] = mice, single I.V. dose 50 mg/kg
smiles,measurement,setting,value
"COC(=O)C(C)=CCC12OC(C)(C)C3CC(C1=O)C(N1CCOCC1)C1C(=O)c4c(O)c5c(c(CC=C(C)C)c4OC132)OC(C)(CCC=C(C)C)C=C5 (stereo not shown) [B, Methyl 9,10-dihydro-10-morpholinyl-gambogate]","Activity in the caspase activation / apoptosis induction assay (in words), 5 h",T-47D; 5 h assay,not active
same,"Caspase activity (Ratio), 5 h",T-47D; 5 h assay,1.2
same,EC50,T-47D; [5],> 10 µM
same,"Activity in the caspase activation / apoptosis induction assay (in words), 24 h",T-47D; 24 h assay,active
same,"Caspase activity (Ratio), 24 h",T-47D; 24 h assay,19
same,EC50,T-47D; [6],3.8 µM
same,Conversion to methyl gambogate (reversal of Michael addition) in biological media (in words),"[1]; 37° C., RPMI biological media",reverse to methyl gambogate; also recorded: converted slowly
same,"Amount in biological media, 0 h","[1]; solution of compound B 5 mg/ml in 87.5% RPMI 1640, 37° C., HPLC peak area, 0 h",92
same,"Amount in biological media, 2 h","[1]; solution of compound B 5 mg/ml in 87.5% RPMI 1640, 37° C., HPLC peak area, 2 h",92
same,"Amount in biological media, 18 h","[1]; solution of compound B 5 mg/ml in 87.5% RPMI 1640, 37° C., HPLC peak area, 18 h",72
same,"Amount in biological media, 48 h","[1]; solution of compound B 5 mg/ml in 87.5% RPMI 1640, 37° C., HPLC peak area, 48 h",49
same,"Amount in biological media, 90 h","[1]; solution of compound B 5 mg/ml in 87.5% RPMI 1640, 37° C., HPLC peak area, 90 h",28
same,Acute MTD,"ICR (CD-1) mice; mouse, in vivo",>100 mg/kg
same,Injection site toxicity,"ICR (CD-1) mice; mouse, in vivo",substantially reduced
same,Multiple Dose MTD,"ICR (CD-1) mice; mouse, in vivo, iv","Once a day, 5 doses: >100 mg/kg"
same,Systemic toxicity / tolerability (in words),"ICR (CD-1) mice; mouse, in vivo, iv",significantly less systemic toxicity than gambogic acid
same,"CL, Clearance",[2]; [7],2.33 mL/min/kg
same,"T1/2, Terminal half-life",[2]; [7],27.6 h
same,"Vss, Vol. of distribution",[2]; [7],2.12 L/kg
same,"AUC (0-inf), Area under the curve","[2]; mice, single I.V. dose 50 mg/kg, plasma","353,021 ng-h/ml"
same,% Tumor reduction,MX-1 (Breast cancer),60%
same,% Tumor reduction,[3],58%
same,Body weight loss / behavioral changes in efficacy studies,[4]; several human tumor xenograft models,no significant body weight loss or abnormal behavioral changes
same,Efficacy (in words),[4],good efficacy
"CC(C)=CCC[C@]1(C)C=Cc2c(O)c3c(c(CC=C(C)C)c2O1)O[C@]12C(=C[C@@H]4C[C@H]1C(C)(C)O[C@@]2(C/C=C(/C)C(=O)O)C4=O)C3=O [Compound A, Gambogic acid]","Activity in the caspase activation / apoptosis induction assay (in words), 5 h",T-47D; 5 h assay,active
same,"Caspase activity (Ratio), 5 h",T-47D; 5 h assay,29.5
same,EC50,T-47D; [5],1.74 µM
same,"Activity in the caspase activation / apoptosis induction assay (in words), 24 h",T-47D; 24 h assay,active
same,"Caspase activity (Ratio), 24 h",T-47D; 24 h assay,12.1
same,EC50,T-47D; [6],0.7 µM
same,Multiple Dose MTD,"ICR (CD-1) mice; mice, I.V., once a day, 5 doses",5 mg/kg
same,Injection site toxicity,"ICR (CD-1) mice; mice, tail vein injection","evidence of injection site toxicity, such as tail edema"
same,"T1/2, Terminal half-life","[2]; mice, single I.V. dose 5 mg/kg",4.8 h
same,"AUC (0-inf), Area under the curve","[2]; mouse, in vivo, iv, 5 mg/kg","2,700 ng-h/ml"
same,"CL, Clearance","[2]; mouse, in vivo, iv, 5 mg/kg",30.7 mL/min/kg
same,"Vss, Vol. of distribution","[2]; mouse, in vivo, iv, 5 mg/kg",2.9 L/kg
same,% Tumor reduction,ZR75-1 (Breast cancer),20%
same,"Best efficacy, tumor growth inhibition","[4]; human tumor cells s.c. in nu/nu mice, at doses that were toxic, not statistically significant",approximately 20%
same,Efficacy (in words),[4],did not produce significant efficacy
same,Cytotoxicity,HeLa cells,cytotoxic
same,Cytotoxicity,HEL cells,cytotoxic
same,Cytotoxicity,KB cell line,cytotoxic
same,Cytotoxicity,KB-V1 cell line,cytotoxic
